US20220313819A1, “COMBINATION THERAPY FOR THE TREATMENT OF SOLID AND HEMATOLOGICAL CANCERS” (Arch Oncology, Inc., priority 2019, published 2022)

Tests used:
RPMI-8226 tumors = test: RPMI-8226 multiple myeloma xenograft in NSG mice; assay type: in vivo, mouse
Excerpt: (§1) RPMI-8226 human multiple myeloma cells (ATCC #CCL-155, Manassas, Va.) were maintained in RPMI-1640 (Lonza; Walkersville, Md.) supplemented with 10% Fetal Bovine Serum (FBS; Omega Scientific; Tarzana, Calif.) and 1% Penicillin/Streptomycin (Corning, Manassas, Va.) within a 5% CO2 atmosphere. Cultures were expanded in tissue culture flasks.
(§2) Female NSG (NOD-Cg-Prkdc^scidI12rg^tm1Wjl/SzJ) were obtained from Jackson Laboratory (Bar Harbor, Me.) at 5-6 weeks of age. Mice were acclimated prior to handling and housed in microisolator cages (Lab Products, Seaford, Del.) under specific pathogen-free conditions. Mice were fed Teklad Global Diet® 2920x irradiated laboratory animal diet (Envigo, Formerly Harlan; Indianapolis, Ind.) and provided autoclaved water ad libitum. All procedures were carried out under Institutional Animal Care and Use guidelines.
Female NSG mice were inoculated subcutaneously in the right flank with 0.1 mL of a 30% RPMI/70% Matrigel™ (BD Biosciences; Bedford, Mass.) mixture containing a suspension of 1×10^7 RPMI-8226 tumor cells.
(§3) The mean TS of each group was calculated and reported.
Differences in Day 48 tumor volumes were confirmed using a one-way ANOVA, unpaired, parametric with the Tukey's Multiple Comparison test with Welch's correction. […]

MM.1S tumors [1] = test: MM.1S multiple myeloma xenograft, combination with bortezomib; assay type: in vivo, mouse
Excerpt: as §1, with “MM.1S” for “RPMI-8226”, “#CRL-2974,” for “#CCL-155,”
as §2, §3
All statistical analyses in the xenograft study were performed with Prism GraphPad® software.

MM.1S tumors [2] = test: MM.1S multiple myeloma xenograft, combination with daratumumab; assay type: in vivo, mouse
Protocol: as §1, with “The anti-tumor properties of a humanized anti-CD47 antibody (VLX9hum_06 IgG2) and in combination with anti-CD38 monoclonal antibody daratumumab which reduce tumor burden in a xenograft MM.1S multiple myeloma NSG mouse model were evaluated MM.1S” for “RPMI-8226”, “#CRL-2974,” for “#CCL-155,”
as §2
Female NSG mice were inoculated subcutaneously in the right flank with 0.1 mL of a 30% RPMI/70% Matrigel™ (BD Biosciences; Bedford, Mass.) mixture containing a suspension of 5×10^6 MM.1S tumor cells. […]
Mean tumor growth inhibition (TGI) was calculated at Day 20 utilizing the following formula. […]

OV90 tumors = test: OV90 ovarian carcinoma xenograft in NSG mice; assay type: in vivo, mouse; settings: OV90, Day 52; antibody 10 mg/kg IP QD5×6, cisplatin 5 mg/kg, paclitaxel 20 mg/kg
Protocol: Female NSG mice (NOD-Cg-PrkdcscidI12rgtm1Wjl/SzJ, Jackson Laboratories) were inoculated subcutaneously in the right flank with 0.1 mL of a 30% RPMI/70% Matrigel™ (BD Biosciences; Bedford, Mass.) mixture containing a suspension of 5×10^6 OV90 ovarian carcinoma cells (ATCC). Digital calipers were used to measure width and length diameters of the tumor. Tumor volumes were calculated utilizing the formula: tumor volume (mm^3)=(a×b^2/2) where ‘b’ is the smallest diameter and ‘a’ is the largest diameter. Mice with palpable tumor volumes of 50-100 mm^3 were randomized into 10 mice/group. […] Tumor volumes and body weights were recorded twice weekly.

SNU-1 tumors = test: SNU-1 gastric carcinoma xenograft in NSG mice; assay type: in vivo, mouse; settings: antibody 25 mg/kg IP Q7D×5, cisplatin 3 mg/kg Q7D×4
Protocol: Female NSG mice (NOD-Cg-PrkdcscidI12rgtm1Wjl/SzJ, Jackson Laboratories) were inoculated subcutaneously in the right flank with 0.1 mL of a 30% RPMI/70% Matrigel™ (BD Biosciences; Bedford, Mass.) mixture containing a suspension of 5×10^6 SNU-1 gastric carcinoma cells (ATCC). Eight days following inoculation, digital calipers were used to measure width and length diameters of the tumor. Tumor volumes were calculated utilizing the formula: tumor volume (mm^3)=(a×b^2/2) where ‘b’ is the smallest diameter and ‘a’ is the largest diameter. Mice with palpable tumor volumes of 50-100 mm^3 were randomized into 10 mice/group and administered anti-CD47 mAb VLX9hum_06 IgG2, cisplatin, control IgG2, or a combination of anti-CD47 mAb VLX9hum_06 IgG2 with cisplatin. Mice were treated with 25 mg/kg of antibody once a week for 5 weeks (Q7D×5) by intraperitoneal injection (IP) and/or with 3 mg/kg of cisplatin once weekly for 4 weeks (Q7D×4). Tumor volumes and body weights were recorded twice weekly.
Mean tumor growth inhibition (TGI) was calculated utilizing the following formula.
Significant differences in tumor volume were confirmed using a two-way ANOVA, unpaired, parametric with the Tukey's Multiple Comparison test.

MM.1S tumors [3] = test: MM.1S xenograft in NOD-SCID mice, combination with lenalidomide or pomalidomide; assay type: in vivo, mouse; settings: for complete tumor regression: N=9/group; for tumor growth inhibition (TGI): mAb 25 mg/kg IP weekly
Excerpt: MM.1S human multiple myeloma cells (ATCC #CRL-2974, Manassas, Va.) were maintained in RPMI-1640 (Lonza; Walkersville, Md.) supplemented with 10% Fetal Bovine Serum (FBS; Omega Scientific; Tarzana, Calif.) and 1% Penicillin/Streptomycin (Corning, Manassas, Va.) within a 5% CO2 atmosphere. Cultures were expanded in tissue culture flasks. Female NOD-SCID (NOD.CB17-Prkdc^scid/J) mice were obtained from Jackson Laboratory (Bar Harbor, Me.) at 5-6 weeks of age. Mice were acclimated prior to handling and housed in microisolator cages (Lab Products, Seaford, Del.) under specific pathogen-free conditions. Mice were fed Teklad Global Diet® 2920x irradiated laboratory animal diet (Envigo, Formerly Harlan; Indianapolis, Ind.) and provided autoclaved water ad libitum. All procedures were carried out under Institutional Animal Care and Use guidelines.
Female NOD-SCID mice were inoculated subcutaneously in the right flank with 0.1 mL of a 50% RPMI-1640/50% Matrigel™ (BD Biosciences; Bedford, Mass.) mixture containing a suspension of 5×10^6 MM.1S tumor cells. When tumors reached volumes of approximately 50-100 mm^3, mice were randomized. The test articles, human IgG2 (hIgG2), anti-CD47 mAb (VLX9hum_06 IgG2) were administered by intraperitoneal (IP) injection and lenalidomide or pomalidomide (LC Labs, Woburn, Mass.) were administered by oral gavage (PO). hIgG2 (25 mg/kg) or an anti-CD47 mAb VLX9hum_06 IgG2 (25 mg/kg) were administered weekly for 5 weeks, while lenalidomide (25 mg/kg) or pomalidomide (10 mg/kg) were administered on 4 successive days, with 3 days off, weekly for 5 weeks.
Mean tumor growth inhibition (TGI) was calculated at Day 24 (the final day all mice were on study) utilizing the following formula.
All statistical analyses in the xenograft study were performed with Prism GraphPad® software. Differences in Day 24 tumor volumes were confirmed using a two-way ANOVA, unpaired, parametric with the Tukey's Multiple Comparison test with Welch's correction.

Jurkat T ALL cell line = test: ATP release; assay type: cell-based, human; settings: mAb 10 μg/ml or mitoxantrone 1 μM, 24 hours
Protocol: Release of ATP from the tumor cell is determined by quantitative bioluminescence assay as described by the manufacturer (Molecular Probes; Catalogue #A22066).
The humanized antibodies (VLX4hum_01 IgG4PE, VLX4hum_07 IgG4PE, VLX8hum_11 IgG4PE, VLX9hum_06 IgG2, VLX9hum_08 IgG2 and VLX9hum_03) as disclosed herein, purified from transient transfections in CHO cells as described above, as well as the control chimeric antibody, were added at a final concentration of 10 μg/ml. As a positive control for ATP release, cells were treated with 1 μM of chemotherapeutic anthracycline mitoxantrone. The cells were incubated at 37° C. for 24 hours, after which the cell-free supernatant was collected and stored at −80° C. After all samples have been collected, 10 μl of each sample was tested by the ATP determination kit as described above. […] Results are presented as means SEM and analyzed for statistical significance using ANOVA in GraphPad Prism 6.

With `CC(C)C[C@H](NC(=O)[C@H](Cc1ccccc1)NC(=O)c1cnccn1)B(O)O` [bortezomib] the median survival (RPMI-8226 tumors; RPMI-8226, 1 mg/kg) was 78 days, the “tumor growth inhibition (TGI)” value (RPMI-8226 tumors; RPMI-8226, Day 48, 1 mg/kg IV Day 1, 4, 12) was 96% and the median survival (MM.1S tumors [1]) was 35 days. For the same compound, the “tumor growth inhibition (TGI)” value (MM.1S tumors [1]; Day 20, mAb 25 mg/kg IP weekly, bortezomib 0.75 then 0.5 mg/kg IV) was 91.8%.
In the case of “daratumumab: anti-CD38 monoclonal antibody”, the median survival (MM.1S tumors [2]) is reported as 29 days and the “tumor growth inhibition (TGI)” value (MM.1S tumors [2]; Day 20, mAb 25 mg/kg weekly, daratumumab 15 mg/kg twice weekly) is reported as 54%.
With `N.N.[Cl][Pt][Cl]` [cisplatin] the “tumor growth inhibition (TGI)” value (OV90 tumors) was 53.1% and the “tumor growth inhibition (TGI)” value (SNU-1 tumors) was 39.7%.
With `Nc1cccc2c1CN(C1CCC(=O)NC1=O)C2=O` (centres unmarked) [lenalidomide] the complete tumor regression (MM.1S tumors [3]; FIG. 91A) was “no tumor regressions” and the “tumor growth inhibition (TGI)” value (MM.1S tumors [3]; day 24, FIG. 91A, lenalidomide 25 mg/kg PO) was 48%.
In the case of `O=C1c2c(O)ccc(O)c2C(=O)c2c(NCCNCCO)ccc(NCCNCCO)c21` [mitoxantrone], the “amount of released ATP” value (Jurkat T ALL cell line) is reported as “did not (ns)”.
With `CC(=O)O[C@H]1C(=O)[C@@]2(C)[C@H]([C@H](OC(=O)c3ccccc3)[C@]3(O)C[C@H](OC(=O)[C@H](O)[C@@H](NC(=O)c4ccccc4)c4ccccc4)C(C)=C1C3(C)C)[C@]1(OC(C)=O)CO[C@@H]1C[C@@H]2O` [paclitaxel] the “tumor growth inhibition (TGI)” value (OV90 tumors) was 32.1%.
For `Nc1cccc2c1C(=O)N(C1CCC(=O)NC1=O)C2=O` (centres unmarked) [pomalidomide], the complete tumor regression (MM.1S tumors [3]; FIG. 91B) was “no tumor regressions” and the “tumor growth inhibition (TGI)” value (MM.1S tumors [3]; day 24, FIG. 91B, pomalidomide 10 mg/kg PO) was 23%.
